In PubChem BioAssay AID256 (DTP/NCI, 2004):
“And” between values parts separate entries of the source, which are not always exact repeats. Equal values may be shown once. Inconclusive results and toxic doses are left out.

System: CD2F1 mice, L1210 leukemia ip, survival T/C
Experiment: NCI In Vivo Anticancer Drug Screen. Data for tumor model L1210 Leukemia (intraperitoneal) in CD2F1 (CDF1) mice
Details: higher = longer survival
Outline: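 Transplantable tumor in mice; compound-treated vs vehicle-treated groups. Read-out = treated/control ratio of the measured endpoint.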

[1] = endpoint: mean survival time, dose: 100.0 mg/kg/injection, schedule: Q01DX001 (ip), vehicle: saline with Tween-80
[2] = endpoint: mean survival time, dose: 200.0 mg/kg/injection, schedule: Q01DX001 (ip), vehicle: saline with Tween-80
[3] = endpoint: mean survival time, dose: 100.0 mg/kg/injection, schedule: Q01DX009 (ip), vehicle: other
[4] = endpoint: mean survival time, dose: 100.0 mg/kg/injection, schedule: Q04DX003 (ip), vehicle: saline with Tween-80
[5] = endpoint: mean survival time, dose: 200.0 mg/kg/injection, schedule: Q04DX003 (ip), vehicle: saline with Tween-80
[6] = endpoint: mean survival time, dose: 400.0 mg/kg/injection, schedule: Q04DX003 (ip), vehicle: saline with Tween-80
[7] = endpoint: mean survival time, dose: 100.0 mg/kg/injection, schedule: Q04DX003 (ip), vehicle: Klucel (hydroxypropylcellulose) (HPC)
[8] = endpoint: mean survival time, dose: 200.0 mg/kg/injection, schedule: Q04DX003 (ip), vehicle: Klucel (hydroxypropylcellulose) (HPC)
[9] = endpoint: mean survival time, dose: 400.0 mg/kg/injection, schedule: Q04DX003 (ip), vehicle: Klucel (hydroxypropylcellulose) (HPC)
[10] = endpoint: mean survival time, dose: 50.0 mg/kg/injection, schedule: Q01DX009 (ip), vehicle: saline with Tween-80
[11] = endpoint: mean survival time, dose: 100.0 mg/kg/injection, schedule: Q01DX009 (ip), vehicle: saline with Tween-80
[12] = endpoint: mean survival time, dose: 200.0 mg/kg/injection, schedule: Q01DX009 (ip), vehicle: saline with Tween-80
[13] = endpoint: mean survival time, dose: 400.0 mg/kg/injection, schedule: Q01DX009 (ip), vehicle: saline with Tween-80
[14] = endpoint: mean survival time, dose: 50.0 mg/kg/injection, schedule: Q01DX009 (ip), vehicle: Klucel (hydroxypropylcellulose) (HPC)
[15] = endpoint: mean survival time, dose: 100.0 mg/kg/injection, schedule: Q01DX009 (ip), vehicle: Klucel (hydroxypropylcellulose) (HPC)
[16] = endpoint: mean survival time, dose: 400.0 mg/kg/injection, schedule: Q01DX001 (ip), vehicle: saline with Tween-80
[17] = endpoint: mean survival time, dose: 200.0 mg/kg/injection, schedule: Q01DX009 (ip), vehicle: Klucel (hydroxypropylcellulose) (HPC)
[18] = endpoint: mean survival time, dose: 100.0 mg/kg/injection, schedule: Q04DX003 (ip), vehicle: saline
[19] = endpoint: mean survival time, dose: 200.0 mg/kg/injection, schedule: Q04DX003 (ip), vehicle: saline

OC(CI)C(O)C(O)C(O)CI (stereo unspecified) (tested in a mixture with another compound)
T/C (endpoint: mean survival time, dose: 50.0 mg/kg/injection, schedule: Q01DX001 (ip), vehicle: saline with Tween-80): 96 % of control | T/C [1]: 100 % of control | T/C [2]: 96 % of control

CC(C)(C)c1ccc(OCCO)cc1
T/C [3]: 108 % of control | T/C [4]: 100 % of control

Cn1cnc([N+](=O)[O-])c1Sc1ncnc2c1cnn2C1OC(CO)C(O)C1O (stereo unspecified)
T/C (endpoint: mean survival time, dose: 25.0 mg/kg/injection, schedule: Q01DX009 (ip), vehicle: other): 95 % of control | T/C (endpoint: mean survival time, dose: 50.0 mg/kg/injection, schedule: Q01DX009 (ip), vehicle: other): 114 % of control | T/C [3]: 97 % of control | T/C (endpoint: mean survival time, dose: 200.0 mg/kg/injection, schedule: Q01DX009 (ip), vehicle: other): 108 % of control | T/C (endpoint: mean survival time, dose: 400.0 mg/kg/injection, schedule: Q01DX009 (ip), vehicle: other): 117 % of control | T/C (endpoint: median survival time, dose: 10.0 mg/kg/injection, schedule: Q01DX005 (ip), vehicle: saline with Tween-80): 96 % of control | T/C (endpoint: median survival time, dose: 20.0 mg/kg/injection, schedule: Q01DX005 (ip), vehicle: saline with Tween-80): 103 % of control | T/C (endpoint: median survival time, dose: 40.0 mg/kg/injection, schedule: Q01DX005 (ip), vehicle: saline with Tween-80): 103 % of control | T/C (endpoint: median survival time, dose: 80.0 mg/kg/injection, schedule: Q01DX005 (ip), vehicle: saline with Tween-80): 102 % of control | T/C (endpoint: median survival time, dose: 160.0 mg/kg/injection, schedule: Q01DX005 (ip), vehicle: saline with Tween-80): 91 % of control

CC(C)C(Br)C(=O)NCC(=O)NCC(=O)O (stereo unspecified)
T/C [4]: 101 % of control | T/C [5]: 100 % of control | T/C [6]: 92 % of control

CC12CCC3C(CCC4=CC(=O)C(C(O)(C(F)(F)F)C(F)(F)F)CC43C)C1CC(C(O)(C(F)(F)F)C(F)(F)F)C2=O (stereo unspecified)
T/C (endpoint: mean survival time, dose: 100.0 mg/kg/injection, schedule: Q01DX009 (sc), vehicle: steriod suspending solution): 90 % of control | T/C (endpoint: mean survival time, dose: 200.0 mg/kg/injection, schedule: Q01DX009 (sc), vehicle: steriod suspending solution): 95 % of control | T/C (endpoint: mean survival time, dose: 400.0 mg/kg/injection, schedule: Q01DX009 (sc), vehicle: steriod suspending solution): 92 % of control

Brc1ccc(-c2ccc(Br)cc2)cc1
T/C [7]: 105 % of control | T/C [8]: 95 % of control | T/C [9]: 95 % of control

CCOC(=O)[C@]1(Br)CC[C@@]1(Br)C(=O)OCC
T/C (endpoint: mean survival time, dose: 12.5 mg/kg/injection, schedule: Q01DX009 (ip), vehicle: saline with Tween-80): 96 % of control | T/C (endpoint: mean survival time, dose: 25.0 mg/kg/injection, schedule: Q01DX009 (ip), vehicle: saline with Tween-80): 95 % of control and 96 % of control | T/C [10]: 92 % of control and 96 % of control | T/C [11]: 93 % of control and 101 % of control | T/C [12]: 100 % of control and 101 % of control | T/C [13]: 98 % of control and 106 % of control

C=CCN(CC=C)Cc1cccc(N(CCCl)CCCl)c1 (tested in a mixture with another compound)
T/C [14]: 109 % of control | T/C [15]: 114 % of control

CC(C)CN1CCOCC1
T/C [10]: 95 % of control | T/C [11]: 97 % of control | T/C [4]: 107 % of control | T/C [5]: 98 % of control

COc1cccc(CCNC(=O)CCN2C(=O)CCC2=O)c1
T/C [11]: 98 % of control | T/C (endpoint: mean survival time, dose: 100.0 mg/kg/injection, schedule: Q04DX003 (ip), vehicle: saline sonified): 101 % of control | T/C [12]: 93 % of control | T/C (endpoint: mean survival time, dose: 200.0 mg/kg/injection, schedule: Q04DX003 (ip), vehicle: saline sonified): 98 % of control | T/C [13]: 100 % of control | T/C (endpoint: mean survival time, dose: 400.0 mg/kg/injection, schedule: Q04DX003 (ip), vehicle: saline sonified): 104 % of control

Nc1nc(=O)n(C2OC(CO)C(O)C2F)cc1I (stereo unspecified)
T/C (endpoint: median survival time, dose: 12.5 mg/kg/injection, schedule: Q01DX005 (ip), vehicle: saline): 103 % of control | T/C (endpoint: median survival time, dose: 25.0 mg/kg/injection, schedule: Q01DX005 (ip), vehicle: saline): 102 % of control | T/C (endpoint: median survival time, dose: 50.0 mg/kg/injection, schedule: Q01DX005 (ip), vehicle: saline): 104 % of control | T/C (endpoint: median survival time, dose: 100.0 mg/kg/injection, schedule: Q01DX005 (ip), vehicle: saline): 97 % of control | T/C (endpoint: median survival time, dose: 200.0 mg/kg/injection, schedule: Q01DX005 (ip), vehicle: saline): 103 % of control

Nc1nc(N)nc(Cl)n1
T/C (endpoint: mean survival time, dose: 25.0 mg/kg/injection, schedule: Q04DX002 (ip), vehicle: saline with Tween-80): 90 % of control | T/C (endpoint: mean survival time, dose: 50.0 mg/kg/injection, schedule: Q04DX002 (ip), vehicle: saline with Tween-80): 101 % of control | T/C (endpoint: mean survival time, dose: 100.0 mg/kg/injection, schedule: Q04DX002 (ip), vehicle: saline with Tween-80): 90 % of control

CC(=O)NC(C)(C)Cc1ccccc1
T/C [1]: 101 % of control | T/C [2]: 117 % of control | T/C [16]: 106 % of control

O=[As](O)(O)CC(Br)CBr (stereo unspecified)
T/C [11]: 100 % of control | T/C [12]: 94 % of control

CCCCCCCc1c(C)c2ccc(OC)cc2[nH]c1=O
T/C [4]: 95 % of control | T/C [5]: 90 % of control

COc1ccc(CN2CCCNCC2)cc1
T/C (endpoint: mean survival time, dose: 12.5 mg/kg/injection, schedule: Q01DX005 (ip), vehicle: water): 95 % of control | T/C (endpoint: mean survival time, dose: 25.0 mg/kg/injection, schedule: Q01DX005 (ip), vehicle: water): 95 % of control | T/C (endpoint: mean survival time, dose: 50.0 mg/kg/injection, schedule: Q01DX005 (ip), vehicle: water): 97 % of control | T/C (endpoint: mean survival time, dose: 100.0 mg/kg/injection, schedule: Q01DX005 (ip), vehicle: water): 101 % of control | T/C (endpoint: mean survival time, dose: 200.0 mg/kg/injection, schedule: Q01DX005 (ip), vehicle: water): 95 % of control

CC12CCC3C4CCC(=O)C=C4CCC3C1CCC2O (stereo unspecified)
T/C [14]: 101 % of control | T/C [15]: 96 % of control | T/C [17]: 101 % of control

Cc1cccc(Cl)c1C#N
T/C [1]: 104 % of control | T/C [11]: 94 % of control | T/C [4]: 107 % of control | T/C [2]: 106 % of control | T/C [12]: 100 % of control | T/C [5]: 101 % of control | T/C [16]: 106 % of control | T/C [13]: 90 % of control | T/C [6]: 100 % of control

CC(C)C1=CC23CCC4C(C)(C(=O)O)CCCC4(C)C2CC1OO3 (stereo unspecified)
T/C [4]: 93 % of control | T/C [5]: 92 % of control | T/C [6]: 95 % of control

CCC1(O)C(=O)OCc2c1cc1n(c2=O)Cc2cc3cc([N+](=O)[O-])ccc3nc2-1 (stereo unspecified)
T/C (endpoint: median survival time, dose: 3.63 mg/kg/injection, schedule: Q04DX002 (ip), vehicle: saline with Tween-80): 185 % of control | T/C (endpoint: median survival time, dose: 7.25 mg/kg/injection, schedule: Q04DX002 (ip), vehicle: saline with Tween-80): 233 % of control | T/C (endpoint: median survival time, dose: 7.5 mg/kg/injection, schedule: Q04DX002 (ip), vehicle: saline with Tween-80): 183 % of control | T/C (endpoint: median survival time, dose: 15.5 mg/kg/injection, schedule: Q04DX002 (ip), vehicle: saline with Tween-80): 219 % of control and 103 % of control

Oc1c(Cl)cc(Cl)cc1CN(Cc1cc(Cl)cc(Cl)c1O)c1ccccc1
T/C (endpoint: mean survival time, dose: 12.5 mg/kg/injection, schedule: Q01DX009 (ip), vehicle: Klucel (hydroxypropylcellulose) (HPC)): 103 % of control | T/C (endpoint: mean survival time, dose: 25.0 mg/kg/injection, schedule: Q01DX009 (ip), vehicle: Klucel (hydroxypropylcellulose) (HPC)): 102 % of control | T/C [14]: 101 % of control | T/C [15]: 100 % of control | T/C [17]: 100 % of control | T/C (endpoint: mean survival time, dose: 400.0 mg/kg/injection, schedule: Q01DX009 (ip), vehicle: Klucel (hydroxypropylcellulose) (HPC)): 94 % of control

COc1cc(CC(C)N)ccc1O (stereo unspecified)
T/C [4]: 105 % of control | T/C [5]: 100 % of control | T/C [6]: 89 % of control

CN(N=O)c1nnnn1C
T/C [18]: 105 % of control | T/C [19]: 103 % of control | T/C (endpoint: mean survival time, dose: 400.0 mg/kg/injection, schedule: Q04DX003 (ip), vehicle: saline): 106 % of control

O=[N+]([O-])c1cc(Cl)ccc1Nc1ccccc1
T/C [7]: 102 % of control | T/C [8]: 102 % of control | T/C [9]: 98 % of control

CCn1c(=S)[nH]c(=O)c2n[nH]nc21
T/C (endpoint: mean survival time, dose: 100.0 mg/kg/injection, schedule: Q01DX009 (ip), vehicle: acetone): 100 % of control | T/C (endpoint: mean survival time, dose: 200.0 mg/kg/injection, schedule: Q01DX009 (ip), vehicle: acetone): 94 % of control

O=P(O)(c1ccccc1Br)c1ccccc1Br
T/C (endpoint: mean survival time, dose: 50.0 mg/kg/injection, schedule: Q04DX003 (ip), vehicle: saline): 101 % of control | T/C [18]: 97 % of control | T/C [19]: 94 % of control
